Measurements published in US10336762B2 (priority 2017, dated 2019).
Read-outs that look alike come from different tables or passages of the source.

Key:
[1] = system: TNFα; test: cells; format: cell-based, human; conditions: Homo sapiens, Monocyte, LPS-stimulated human monocytes, read-out: EC50 TNF
[2] = target: IRAK4 enzyme (Homo sapiens (Human), UniProt Q9NWZ3); test: biochemical; format: biochemical; conditions: IRAK4 enzyme, 500 μM ATP
IRAK4 enzyme, sequence (Q9NWZ3 whole entry): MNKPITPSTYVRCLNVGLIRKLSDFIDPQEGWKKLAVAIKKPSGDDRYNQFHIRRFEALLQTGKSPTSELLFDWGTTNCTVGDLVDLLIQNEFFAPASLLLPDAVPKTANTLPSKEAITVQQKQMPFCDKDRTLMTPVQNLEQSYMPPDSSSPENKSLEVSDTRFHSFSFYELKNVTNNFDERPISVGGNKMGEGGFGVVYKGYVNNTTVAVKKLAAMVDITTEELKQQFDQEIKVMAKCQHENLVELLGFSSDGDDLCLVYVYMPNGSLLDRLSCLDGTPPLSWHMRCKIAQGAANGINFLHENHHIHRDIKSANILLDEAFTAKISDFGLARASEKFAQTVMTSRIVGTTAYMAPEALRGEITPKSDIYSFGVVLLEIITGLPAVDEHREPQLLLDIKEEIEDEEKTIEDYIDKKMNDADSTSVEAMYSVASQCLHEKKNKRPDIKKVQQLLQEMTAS

SMILES: COC(=O)N1CC(CNC(=O)c2cnc(-c3ccc4cc(C#N)cnn34)cc2NC23CCC(O)(CC2)CC3)C1 [Example 744, methyl 3-((6-(3-cyano-pyrrolo[1,2-b]pyridazin-7-yl)-4-((4-hydroxy-bicyclo[2.2.2]octan-1-yl)amino)nicotinamido)methyl)azetidine-1-carboxylate]
- EC50 ([1]; TNFα content): 157 nM
- IC50 ([2]; TR-FRET (HTRF)): 2 nM

SMILES: CC(C)(O)[C@H](F)CNC(=O)c1cnc(-c2ccc3cc(C#N)cnn23)cc1Nc1nnc(N2CCOCC2)o1 [Example 144, (R)-6-(3-cyanopyrrolo[1,2-b]pyridazin-7-yl)-N-(2-fluoro-3-hydroxy-3-methylbutyl)-4-((5-morpholino-1,3,4-oxadiazol-2-yl)amino) nicotinamide]
- EC50 ([1]; TNFα content): > 10000 nM
- IC50 ([2]; TR-FRET): 656 nM

SMILES: CC(C)(O)[C@H](F)CNC(=O)c1cnc(-c2ccc3cc(C#N)cnn23)cc1N[C@H]1C[C@H](Cn2ccccc2=O)C1 [Example 729, 6-(3-cyanopyrrolo[1,2-b]pyridazin-7-yl)-N-((R)-2-fluoro-3-hydroxy-3-methylbutyl)-4-(((1r,3R)-3-((2-oxopyridin-1(2H)-yl)methyl)cyclobutyl)amino)nicotinamide]
- EC50 ([1]; TNFα content): 58 nM
- IC50 ([2]; TR-FRET (HTRF)): 1 nM

SMILES: CC(C)(O)[C@H](F)CNC(=O)c1cnc(-c2ccc3cc(C#N)cnn23)cc1N[C@H]1CC[C@H](NC(=O)OC2CCC2)CC1 [Example 288, cyclobutyl ((1R,4r)-4-((2-(3-cyanopyrrolo[1,2-b]pyridazin-7-yl)-5-(((R)-2-fluoro-3-hydroxy-3-methylbutyl)carbamoyl)pyridin-4-yl)amino)cyclohexyl)carbamate]
- EC50 ([1]; TNFα content): 54 nM
- IC50 ([2]; TR-FRET): 1 nM

SMILES: CC(C)Nc1cc(-c2ccc3cc(C#N)cnn23)ncc1C(=O)NC1CC1CO (centres unmarked) [Example 45, 6-(3-cyanopyrrolo[1,2-b]pyridazin-7-yl)-N-(2-(hydroxymethyl)cyclopropyl)-4-(isopropylamino) nicotinamide]
- EC50 ([1]; TNFα content): 255 nM
- IC50 ([2]; TR-FRET): 10 nM

SMILES: N#CCNC(=O)c1cnc(-c2ccc3cc(C#N)cnn23)cc1NC1CC1 [Example 461, N-(cyanomethyl)-6-(3-cyanopyrrolo[1,2-b]pyridazin-7-yl)-4-(cyclopropylamino) nicotinamide]
- EC50 ([1]; TNFα content): 57 nM
- IC50 ([2]; TR-FRET (HTRF)): < 1 nM

SMILES: COC(=O)NC12CCC(Nc3cc(-c4ccc5cc(C#N)cnn45)ncc3C(=O)NC3CCC(NC(=O)N4CCOCC4)CC3)(CC1)CC2 (centres unmarked) [Example 270, methyl (4-((2-(3-cyano-pyrrolo[1,2-b]pyridazin-7-yl)-5-((4-(morpholine-4-carboxamido)cyclohexyl)carbamoyl)pyridin-4-yl)amino)bicyclo[2.2.2]octan-1-yl)carbamate]
- EC50 ([1]; TNFα content): 49 nM
- IC50 ([2]; TR-FRET): 1 nM

SMILES: N#Cc1cnn2c(-c3cc(NC45CCC(O)(CC4)CC5)c(C(=O)N[C@H]4CCCNC4=O)cn3)ccc2c1 [Example 957, (S)-6-(3-cyanopyrrolo[1,2-b]pyridazin-7-yl)-4-((4-hydroxybicyclo[2.2.2]octan-1-yl)amino)-N-(2-oxo-piperidin-3-yl)nicotinamide]
- EC50 ([1]; TNFα by TR-FRET): 173 nM
- IC50 ([2]; TR-FRET): < 1 nM

SMILES: CC(C)(O)[C@H](F)CNC(=O)c1cnc(-c2ccc3cc(C#N)cnn23)cc1N[C@H]1CC[C@H](N2CCOCC2)CC1 [Example 822, 6-(3-cyanopyrrolo[1,2-b]pyridazin-7-yl)-N-((R)-2-fluoro-3-hydroxy-3-methylbutyl)-4-(((1r,4R)-4-morpholinocyclohexyl)amino)nicotinamide]
- EC50 ([1]; TNFα by TR-FRET): 73 nM
- IC50 ([2]; TR-FRET): 1 nM

SMILES: CNC(=O)c1cnc(-c2ccc3cc(C#N)cnn23)cc1N[C@H]1C[C@@H](C(=O)NC)C1 [Example 471, 6-(3-cyanopyrrolo[1,2-b]pyridazin-7-yl)-N-methyl-4-(((1s,3s)-3-(methylcarbamoyl)cyclobutyl)amino) nicotinamide]
- EC50 ([1]; TNFα content): 74 nM
- IC50 ([2]; TR-FRET (HTRF)): 9 nM
